From patent US8377884B2, “Variants of C-type natriuretic peptides” (Biomarin Pharmaceutical Inc., priority 2007, dated 2013)
Where two headings read alike, the source gives them in different places. Bridge positions count the residues as written; N and C are the ends. Peptide text beside a SMILES is read from it.

Molecular target: T1, NPR-B (Mus musculus, UniProt Q6VVW5)
T1 construct: Murine NIH3T3 cells express endogenously the CNP signaling receptor, NPR-B; endogenous in cells; host or cells: NIH3T3 (murine fibroblasts)
T1 sequence (Q6VVW5 17-1047): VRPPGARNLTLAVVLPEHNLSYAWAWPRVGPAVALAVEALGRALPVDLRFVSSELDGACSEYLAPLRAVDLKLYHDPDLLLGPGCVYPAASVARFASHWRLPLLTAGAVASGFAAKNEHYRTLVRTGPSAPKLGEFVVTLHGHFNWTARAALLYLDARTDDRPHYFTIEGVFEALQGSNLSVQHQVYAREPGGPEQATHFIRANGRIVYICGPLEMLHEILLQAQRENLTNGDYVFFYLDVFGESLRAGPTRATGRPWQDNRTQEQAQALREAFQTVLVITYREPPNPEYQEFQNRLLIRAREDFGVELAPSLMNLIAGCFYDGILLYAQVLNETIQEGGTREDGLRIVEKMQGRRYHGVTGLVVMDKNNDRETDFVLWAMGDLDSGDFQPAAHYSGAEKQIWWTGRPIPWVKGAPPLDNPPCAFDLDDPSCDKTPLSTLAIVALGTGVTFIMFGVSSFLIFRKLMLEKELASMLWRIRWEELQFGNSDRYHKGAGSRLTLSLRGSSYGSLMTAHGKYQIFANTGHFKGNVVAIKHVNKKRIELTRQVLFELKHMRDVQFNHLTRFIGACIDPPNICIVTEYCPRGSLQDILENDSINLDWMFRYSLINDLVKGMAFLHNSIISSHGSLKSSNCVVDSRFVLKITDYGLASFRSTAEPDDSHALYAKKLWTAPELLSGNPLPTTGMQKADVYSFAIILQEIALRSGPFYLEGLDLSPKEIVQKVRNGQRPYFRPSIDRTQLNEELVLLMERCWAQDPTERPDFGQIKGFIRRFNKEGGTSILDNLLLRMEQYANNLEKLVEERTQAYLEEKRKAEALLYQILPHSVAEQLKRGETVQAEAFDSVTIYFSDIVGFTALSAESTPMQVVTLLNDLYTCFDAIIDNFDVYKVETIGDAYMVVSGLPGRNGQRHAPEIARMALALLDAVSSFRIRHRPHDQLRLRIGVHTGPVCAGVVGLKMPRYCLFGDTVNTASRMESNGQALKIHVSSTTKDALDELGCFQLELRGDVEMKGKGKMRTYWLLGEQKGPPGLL
Test: Stimulation of cGMP production in NIH3T3 cells
Assay type: cell-based, Murine
Conditions: for cGMP response relative to 1 uM CNP22 (%) at 0.01 µM: read-out: cGMP Response rel. to 1 uM CNP22, 10 nM; for cGMP response relative to 1 uM CNP22 (%) at 1 µM: read-out: cGMP Response rel. to 1 uM CNP22, 1 uM

[1] = NIH3T3 cells, 10 nM natriuretic peptide, normalized to cell number and cGMP production with 1 uM wtCNP22
[2] = NIH3T3 cells, 1 uM natriuretic peptide, normalized to cell number and cGMP production with 1 uM wtCNP22

`CC[C@H](C)[C@@H]1NC(=O)[C@H](CCCNC(=N)N)NC(=O)[C@H](CC(=O)O)NC(=O)[C@H](CC(C)C)NC(=O)[C@H](CCCNC(=N)N)NC(=O)[C@H](CC(C)C)NC(=O)CNC(=O)[C@H](Cc2ccccc2)NC(=O)[C@@H](NC(=O)CNC(=O)[C@H](CCCNC(=N)N)NC(=O)[C@H](CO)NC(=O)[C@H](CC(C)C)NC(=O)CN)CSSC[C@@H](C(=O)O)NC(=O)CNC(=O)[C@H](CC(C)C)NC(=O)CNC(=O)[C@H](CO)NC(=O)[C@H](CCSC)NC(=O)[C@H](CO)NC(=O)CNC1=O` [BH] (H-GLSRGCFGLRLDRIGSMSGLGC-OH; disulfide 6-22) gave a cGMP response relative to 1 uM CNP22 (%) at 0.01 µM [1] of 12% and a cGMP response relative to 1 uM CNP22 (%) at 1 µM [2] of 80%.

In the case of `CC[C@H](C)[C@@H]1NC(=O)[C@H](CCCNC(=N)N)NC(=O)[C@H](CC(=O)O)NC(=O)[C@H](CC(C)C)NC(=O)[C@H](CCCCN)NC(=O)[C@H](CC(C)C)NC(=O)CNC(=O)[C@H](Cc2ccccc2)NC(=O)[C@@H](NC(=O)CNC(=O)[C@H](CCCNC(=N)N)NC(=O)[C@H](CO)NC(=O)[C@H](CC(C)C)NC(=O)CNC(=O)[C@H](CCC(N)=O)NC(=O)[C@H](CCC(N)=O)NC(=O)[C@H](CC(N)=O)NC(=O)[C@H](C)NC(=O)CN)CSSC[C@@H](C(=O)O)NC(=O)CNC(=O)[C@H](CC(C)C)NC(=O)CNC(=O)[C@H](CO)NC(=O)[C@H](CCSC)NC(=O)[C@H](CO)NC(=O)CNC1=O` [CH] (H-GANQQGLSRGCFGLKLDRIGSMSGLGC-OH; disulfide 11-27 (inferred); N-terminus and C-terminus assumed), the cGMP response relative to 1 uM CNP22 (%) at 0.01 µM [1] is reported as 44 ± 8% and the cGMP response relative to 1 uM CNP22 (%) at 1 µM [2] is reported as 95 ± 11%.

Work on `CC[C@H](C)[C@@H]1NC(=O)[C@H](CCCNC(=N)N)NC(=O)[C@H](CC(=O)O)NC(=O)[C@H](CC(C)C)NC(=O)[C@H](CCCCN)NC(=O)[C@H](CC(C)C)NC(=O)CNC(=O)[C@H](Cc2ccccc2)NC(=O)[C@@H](NC(=O)CNC(=O)[C@H](CCCNC(=N)N)NC(=O)[C@H](CO)NC(=O)[C@H](CC(C)C)NC(=O)CNC(=O)[C@H](CCCNC(=N)N)NC(=O)[C@@H]2CCCN2C(=O)[C@H](CC(N)=O)NC(=O)[C@H](C)NC(=O)CN)CSSC[C@@H](C(=O)O)NC(=O)CNC(=O)[C@H](CC(C)C)NC(=O)CNC(=O)[C@H](CO)NC(=O)[C@H](CCSC)NC(=O)[C@H](CO)NC(=O)CNC1=O` [CI] (H-GANPRGLSRGCFGLKLDRIGSMSGLGC-OH; disulfide 11-27 (inferred); N-terminus and C-terminus assumed) yielded a cGMP response relative to 1 uM CNP22 (%) at 0.01 µM [1] of 50 ± 1% and a cGMP response relative to 1 uM CNP22 (%) at 1 µM [2] of 105 ± 12%.

`CC[C@H](C)[C@@H]1NC(=O)[C@H](CCCNC(=N)N)NC(=O)[C@H](CC(=O)O)NC(=O)[C@H](CC(C)C)NC(=O)[C@H](CCCCN)NC(=O)[C@H](CC(C)C)NC(=O)CNC(=O)[C@H](Cc2ccccc2)NC(=O)[C@@H](NC(=O)CNC(=O)[C@H](CCCNC(=N)N)NC(=O)[C@H](CO)NC(=O)[C@H](CC(C)C)NC(=O)CNC(=O)[C@H](CCC(N)=O)NC(=O)[C@H](CCC(N)=O)NC(=O)[C@H](CC(N)=O)NC(=O)[C@H](C)NC(=O)CNC(=O)[C@H](CO)NC(=O)[C@H](CCC(N)=O)NC(=O)[C@@H](NC(=O)CNC(=O)[C@H](CO)NC(=O)[C@H](CO)NC(=O)[C@H](Cc2c[nH]cn2)NC(=O)[C@@H](NC(=O)[C@H](CCC(N)=O)NC(=O)CN)[C@@H](C)O)[C@@H](C)O)CSSC[C@@H](C(=O)O)NC(=O)CNC(=O)[C@H](CC(C)C)NC(=O)CNC(=O)[C@H](CO)NC(=O)[C@H](CCSC)NC(=O)[C@H](CO)NC(=O)CNC1=O` [CN] (H-GQTHSSGTQSGANQQGLSRGCFGLKLDRIGSMSGLGC-OH; disulfide 21-37) showed a cGMP response relative to 1 uM CNP22 (%) at 0.01 µM [1] of 12% and a cGMP response relative to 1 uM CNP22 (%) at 1 µM [2] of 115%.

Compound `CC[C@H](C)[C@@H]1NC(=O)[C@H](CCCNC(=N)N)NC(=O)[C@H](CC(=O)O)NC(=O)[C@H](CC(C)C)NC(=O)[C@H](CCCCN)NC(=O)[C@H](CC(C)C)NC(=O)CNC(=O)[C@H](Cc2ccccc2)NC(=O)[C@@H](NC(=O)CNC(=O)[C@H](CCCCN)NC(=O)[C@H](CO)NC(=O)[C@H](CC(C)C)NC(=O)CNC(=O)[C@H](CCC(N)=O)NC(=O)[C@H](CCC(N)=O)NC(=O)[C@H](CC(N)=O)NC(=O)[C@H](C)NC(=O)CNC(=O)[C@H](Cc2c[nH]cn2)NC(=O)[C@@H]2CCCN2C(=O)[C@H](Cc2c[nH]cn2)NC(=O)[C@H](CCC(N)=O)NC(=O)[C@H](CCC(=O)O)NC(=O)[C@H](Cc2c[nH]cn2)NC(=O)[C@H](CO)NC(=O)[C@H](Cc2c[nH]cn2)NC(=O)[C@H](Cc2c[nH]cn2)NC(=O)CN)CSSC[C@@H](C(=O)O)NC(=O)CNC(=O)[C@H](CC(C)C)NC(=O)CNC(=O)[C@H](CO)NC(=O)[C@H](CCSC)NC(=O)[C@H](CO)NC(=O)CNC1=O` [CQ] (H-GHHSHEQHPHGANQQGLSKGCFGLKLDRIGSMSGLGC-OH; disulfide 21-37 (inferred); N-terminus and C-terminus assumed) has a cGMP response relative to 1 uM CNP22 (%) at 0.01 µM (NIH3T3, […]) of 16% and a cGMP response relative to 1 uM CNP22 (%) at 1 µM (NIH3T3, […]) of 95%.

In the case of `CC[C@H](C)[C@@H]1NC(=O)[C@H](CCCNC(=N)N)NC(=O)[C@H](CC(=O)O)NC(=O)[C@H](CC(C)C)NC(=O)[C@H](CCCCN)NC(=O)[C@H](CC(C)C)NC(=O)CNC(=O)[C@H](Cc2ccccc2)NC(=O)[C@@H](NC(=O)CNC(=O)[C@H](CCCCN)NC(=O)[C@H](CO)NC(=O)[C@H](CC(C)C)NC(=O)CNC(=O)[C@H](CCC(N)=O)NC(=O)[C@H](CCC(N)=O)NC(=O)[C@H](CC(N)=O)NC(=O)[C@H](C)NC(=O)CNC(=O)[C@H](Cc2c[nH]cn2)NC(=O)[C@@H](NC(=O)[C@H](CC(=O)O)NC(=O)[C@H](Cc2c[nH]cn2)NC(=O)[C@H](CCC(=O)O)NC(=O)[C@H](Cc2c[nH]cn2)NC(=O)[C@@H]2CCCN2C(=O)[C@H](Cc2c[nH]cn2)NC(=O)[C@H](Cc2c[nH]cn2)NC(=O)[C@H](C)NC(=O)CN)[C@@H](C)O)CSSC[C@@H](C(=O)O)NC(=O)CNC(=O)[C@H](CC(C)C)NC(=O)CNC(=O)[C@H](CO)NC(=O)[C@H](CCSC)NC(=O)[C@H](CO)NC(=O)CNC1=O` [CR] (H-GAHHPHEHDTHGANQQGLSKGCFGLKLDRIGSMSGLGC-OH; disulfide 22-38 (inferred); N-terminus and C-terminus assumed), the cGMP response relative to 1 uM CNP22 (%) at 0.01 µM (NIH3T3, […]) is reported as 14 ± 5% and the cGMP response relative to 1 uM CNP22 (%) at 1 µM (NIH3T3, […]) is reported as 77 ± 12%.

Work on `CC[C@H](C)[C@@H]1NC(=O)[C@H](CCCNC(=N)N)NC(=O)[C@H](CC(=O)O)NC(=O)[C@H](CC(C)C)NC(=O)[C@H](CCCCN)NC(=O)[C@H](CC(C)C)NC(=O)CNC(=O)[C@H](Cc2ccccc2)NC(=O)[C@@H](NC(=O)CNC(=O)[C@H](CCCCN)NC(=O)[C@H](CO)NC(=O)[C@H](CC(C)C)NC(=O)CNC(=O)[C@H](CCCCN)NC(=O)[C@H](CCC(N)=O)NC(=O)[C@H](CC(N)=O)NC(=O)[C@H](C)NC(=O)CNC(=O)[C@H](CCCCN)NC(=O)[C@H](Cc2ccc(O)cc2)NC(=O)[C@H](CCCCN)NC(=O)[C@H](CCCNC(=N)N)NC(=O)[C@H](C)NC(=O)[C@H](CC(N)=O)NC(=O)[C@@H]2CCCN2C(=O)[C@H](Cc2c[nH]cn2)NC(=O)[C@H](CCC(=O)O)NC(=O)[C@H](CCC(N)=O)NC(=O)CN)CSSC[C@@H](C(=O)O)NC(=O)CNC(=O)[C@H](CC(C)C)NC(=O)CNC(=O)[C@H](CO)NC(=O)[C@H](CCSC)NC(=O)[C@H](CO)NC(=O)CNC1=O` [CT] (H-GQEHPNARKYKGANQKGLSKGCFGLKLDRIGSMSGLGC-OH; disulfide 22-38 (inferred); N-terminus and C-terminus assumed) yielded a cGMP response relative to 1 uM CNP22 (%) at 0.01 µM [1] of 60% and a cGMP response relative to 1 uM CNP22 (%) at 1 µM [2] of 121%.
